According to ChEMBL document CHEMBL2016493, “Design, synthesis, synergistic antimicrobial activity and cytotoxicity of 4-aryl substituted 3,4-dihydropyrimidinones of curcumin” (Bioorg Med Chem Lett, 2012):
Calls of active or inactive are those of the source. No cut-off for these calls is given here.

How the values were obtained:
Curvularia lunata [1] = assay: Antifungal activity against Curvularia lunata MTCC 581 at 40 uM/ml after 48 hrs by paper disc diffusion method; format: functional; details: MTCC 581, 48 h, read-out: IZ
Escherichia coli [2] = assay: Antibacterial activity against Escherichia coli ATCC 35218 at 160 uM/ml after 24 hrs by kirby-bauer method; format: functional; details: ATCC 35218, 24 h, read-out: IZ
Salmonella typhimurium [3] = assay: Antibacterial activity against Salmonella typhimurium ATCC 23564 at 80 uM/ml after 24 hrs by kirby-bauer method; format: functional, Salmonella enterica subsp. enterica serovar Typhimurium; details: Salmonella enterica, ATCC 23564, 24 h; read-out: IZ
Trichoderma viride [4] = assay: Antifungal activity against Trichoderma viride MTCC 1107 at 20 uM/ml after 48 hrs by paper disc diffusion method; format: functional; details: MTCC 1107, 48 h, read-out: IZ
Aspergillus niger [5] = assay: Antifungal activity against Aspergillus niger MTCC 1108 at 40 uM/ml after 48 hrs by paper disc diffusion method; format: functional
Salmonella typhimurium [6] = assay: Antibacterial activity against Salmonella typhimurium ATCC 23564 at 160 uM/ml after 24 hrs by kirby-bauer method; format: functional, Salmonella enterica subsp. enterica serovar Typhimurium; details: for zone of inhibition at 160 µM: Salmonella enterica, ATCC 23564, 24 h, read-out: IZ
Aspergillus niger [7] = assay: Antifungal activity against Aspergillus niger MTCC 1108 at 80 uM/ml after 48 hrs by paper disc diffusion method; format: functional
Salmonella typhimurium [8] = assay: Antibacterial activity against Salmonella typhimurium ATCC 23564 at 40 uM/ml after 24 hrs by kirby-bauer method; format: functional
Pseudomonas aeruginosa [9] = assay: Antibacterial activity against Pseudomonas aeruginosa ATCC 15499 at 40 uM/ml after 24 hrs by kirby-bauer method; format: functional; details: for zone of inhibition at 40 µM: ATCC 15499, 24 h, read-out: IZ
Curvularia lunata [10] = assay: Antifungal activity against Curvularia lunata MTCC 581 at 80 uM/ml after 48 hrs by paper disc diffusion method; format: functional; details: MTCC 581, 48 h, read-out: IZ
Staphylococcus aureus [11] = assay: Antibacterial activity against Staphylococcus aureus ATCC 11632 at 40 uM/ml after 24 hrs by kirby-bauer method; format: functional
Salmonella typhimurium [12] = assay: Antibacterial activity against Salmonella typhimurium ATCC 23564 at 20 uM/ml after 24 hrs by kirby-bauer method; format: functional
QG-56 = assay: Cytotoxicity against human QG56 cells after 48 hrs by MTT assay; format: functional, cell-based
Staphylococcus aureus [13] = assay: Antibacterial activity against Staphylococcus aureus ATCC 11632 at 160 uM/ml after 24 hrs by kirby-bauer method; format: functional; details: for zone of inhibition at 160 µM: ATCC 11632, 24 h, read-out: IZ
Escherichia coli [14] = assay: Antibacterial activity against Escherichia coli ATCC 35218 at 20 uM/ml after 24 hrs by kirby-bauer method; format: functional; details: for zone of inhibition at 20 µM: ATCC 35218, 24 h, read-out: IZ
[15] = test system: Burkholderia pseudomallei; assay: Antibacterial activity against Burkholderia pseudomallei NTCC 10274 at 160 uM/ml after 24 hrs by kirby-bauer method; format: functional; details: for zone of inhibition at 160 µM: NTCC 10274, 24 h, read-out: IZ
Curvularia lunata [16] = assay: Antifungal activity against Curvularia lunata MTCC 581 at 160 uM/ml after 48 hrs by paper disc diffusion method; format: functional; details: MTCC 581, 48 h, read-out: IZ
Aspergillus flavus [17] = assay: Antifungal activity against Aspergillus flavus MTCC 1021 at 160 uM/ml after 48 hrs by paper disc diffusion method; format: functional
Aspergillus niger [18] = assay: Antifungal activity against Aspergillus niger MTCC 1108 at 20 uM/ml after 48 hrs by paper disc diffusion method; format: functional
Staphylococcus aureus [19] = assay: Antibacterial activity against Staphylococcus aureus ATCC 11632 at 20 uM/ml after 24 hrs by kirby-bauer method; format: functional
Aspergillus niger [20] = assay: Antifungal activity against Aspergillus niger MTCC 1108 at 160 uM/ml after 48 hrs by paper disc diffusion method; format: functional; details: MTCC 1108, 48 h, read-out: IZ
Trichoderma viride [21] = assay: Antifungal activity against Trichoderma viride MTCC 1107 at 40 uM/ml after 48 hrs by paper disc diffusion method; format: functional; details: MTCC 1107, 48 h, read-out: IZ
Trichoderma viride [22] = assay: Antifungal activity against Trichoderma viride MTCC 1107 at 160 uM/ml after 48 hrs by paper disc diffusion method; format: functional; details: MTCC 1107, 48 h, read-out: IZ
Escherichia coli [23] = assay: Antibacterial activity against Escherichia coli ATCC 35218 at 80 uM/ml after 24 hrs by kirby-bauer method; format: functional; details: ATCC 35218, 24 h, read-out: IZ
Pseudomonas aeruginosa [24] = assay: Antibacterial activity against Pseudomonas aeruginosa ATCC 15499 at 20 uM/ml after 24 hrs by kirby-bauer method; format: functional; details: for zone of inhibition at 20 µM: ATCC 15499, 24 h, read-out: IZ
Curvularia lunata [25] = assay: Antifungal activity against Curvularia lunata MTCC 581 at 20 uM/ml after 48 hrs by paper disc diffusion method; format: functional; details: MTCC 581, 48 h, read-out: IZ
Escherichia coli [26] = assay: Antibacterial activity against Escherichia coli ATCC 35218 at 40 uM/ml after 24 hrs by kirby-bauer method; format: functional; details: ATCC 35218, 24 h, read-out: IZ
Pseudomonas aeruginosa [27] = assay: Antibacterial activity against Pseudomonas aeruginosa ATCC 15499 at 160 uM/ml after 24 hrs by kirby-bauer method; format: functional; details: ATCC 15499, 24 h, read-out: IZ
Trichoderma viride [28] = assay: Antifungal activity against Trichoderma viride MTCC 1107 at 80 uM/ml after 48 hrs by paper disc diffusion method; format: functional; details: MTCC 1107, 48 h, read-out: IZ
Staphylococcus aureus [29] = assay: Antibacterial activity against Staphylococcus aureus ATCC 11632 at 80 uM/ml after 24 hrs by kirby-bauer method; format: functional; details: ATCC 11632, 24 h, read-out: IZ
Pseudomonas aeruginosa [30] = assay: Antibacterial activity against Pseudomonas aeruginosa ATCC 15499 at 80 uM/ml after 24 hrs by kirby-bauer method; format: functional; details: for zone of inhibition at 80 µM: ATCC 15499, 24 h, read-out: IZ
[31] = test system: Burkholderia pseudomallei; assay: Antibacterial activity against Burkholderia pseudomallei NTCC 10274 at 20 uM/ml after 24 hrs by kirby-bauer method; format: functional; details: NTCC 10274, 24 h, read-out: IZ
Aspergillus flavus [32] = assay: Antifungal activity against Aspergillus flavus MTCC 1021 at 40 uM/ml after 48 hrs by paper disc diffusion method; format: functional
Aspergillus flavus [33] = assay: Antifungal activity against Aspergillus flavus MTCC 1021 at 80 uM/ml after 48 hrs by paper disc diffusion method; format: functional
Aspergillus flavus [34] = assay: Antifungal activity against Aspergillus flavus MTCC 1021 at 20 uM/ml after 48 hrs by paper disc diffusion method; format: functional
[35] = test system: Burkholderia pseudomallei; assay: Antibacterial activity against Burkholderia pseudomallei NTCC 10274 at 40 uM/ml after 24 hrs by kirby-bauer method; format: functional; details: NTCC 10274, 24 h, read-out: IZ
[36] = test system: Burkholderia pseudomallei; assay: Antibacterial activity against Burkholderia pseudomallei NTCC 10274 at 80 uM/ml after 24 hrs by kirby-bauer method; format: functional; details: NTCC 10274, 24 h, read-out: IZ
[37] = Salmonella enterica subsp. enterica serovar Typhimurium
[38] = Salmonella enterica, ATCC 23564, 24 h, read-out: IZ

Row | Compound | IC50 (HepG2) | zone of inhibition at 40 µM (Curvularia lunata [1]) | zone of inhibition at 160 µM (Escherichia coli [2]) | zone of inhibition at 80 µM (Salmonella typhimurium [3]) | zone of inhibition at 20 µM (Trichoderma viride [4]) | inhibition zone (IZ) (Aspergillus niger [5]) | zone of inhibition at 160 µM (Salmonella typhimurium [6]) | IC50 (HCT-116) | zone of inhibition at 80 µM (Curvularia lunata [10]) | IC50 (QG-56) | zone of inhibition at 160 µM (Staphylococcus aureus [13]) | zone of inhibition at 20 µM (Escherichia coli [14]) | zone of inhibition at 160 µM (Curvularia lunata [16]) | inhibition zone (IZ) (Aspergillus niger [18]) | zone of inhibition at 160 µM (Aspergillus niger [20]) | zone of inhibition (Trichoderma viride [21]) | zone of inhibition at 160 µM (Trichoderma viride [22]) | zone of inhibition at 80 µM (Escherichia coli [23]) | zone of inhibition at 40 µM (Escherichia coli [26]) | zone of inhibition at 160 µM (Pseudomonas aeruginosa [27]) | further results
1 | COc1cc(/C=C/C(=O)C2=C(/C=C/c3ccc(O)c(OC)c3)NC(=O)NC2c2ccc(Cl)cc2)ccc1O (stereo unspecified) | 100 uM/ml | 12 mm | 19 mm | 9 mm | 15 mm | inactive | 11 mm | 100 uM/ml | 18 mm | 100 uM/ml | 12 mm | 9 mm | 22 mm | inactive | 12 mm | 17 mm | 18 mm | 16 mm | 11 mm | 9 mm | inhibition zone (IZ) (Aspergillus niger [7]): inactive; inhibition zone (IZ) (Salmonella typhimurium [8]; [37]): inactive; inhibition zone (IZ) (Pseudomonas aeruginosa [9]): inactive; inhibition zone (IZ) (Staphylococcus aureus [11]): inactive; inhibition zone (IZ) (Salmonella typhimurium [12]; [37]): inactive; inhibition zone (IZ) [15]: inactive; inhibition zone (IZ) (Aspergillus flavus [17]): inactive; inhibition zone (IZ) (Staphylococcus aureus [19]): inactive; inhibition zone (IZ) (Pseudomonas aeruginosa [24]): inactive; zone of inhibition at 20 µM (Curvularia lunata [25]): 9 mm; zone of inhibition at 80 µM (Trichoderma viride [28]): 17 mm; zone of inhibition at 80 µM (Staphylococcus aureus [29]): 10 mm; inhibition zone (IZ) (Pseudomonas aeruginosa [30]): inactive
2 | COc1ccc(C2NC(=S)NC(/C=C/c3ccc(O)c(OC)c3)=C2C(=O)/C=C/c2ccc(O)c(OC)c2)cc1 (stereo unspecified) | 100 uM/ml | 18 mm | 18 mm | – | 17 mm | inactive | – | 50 uM/ml | 21 mm | 50 uM/ml | – | – | 24 mm | inactive | 11 mm | 18 mm | 23 mm | 14 mm | 9 mm | 23 mm | zone of inhibition at 20 µM [31]: 16 mm; inhibition zone (IZ) (Aspergillus flavus [32]): inactive; inhibition zone (IZ) (Salmonella typhimurium [6]; [37]): inactive; zone of inhibition at 80 µM (Aspergillus niger [7]; MTCC 1108, 48 h, read-out: IZ): 9 mm; inhibition zone (IZ) (Aspergillus flavus [33]): inactive; inhibition zone (IZ) (Aspergillus flavus [34]): inactive; zone of inhibition at 40 µM [35]: 19 mm; zone of inhibition at 40 µM (Pseudomonas aeruginosa [9]): 19 mm; inhibition zone (IZ) (Staphylococcus aureus [13]): inactive; inhibition zone (IZ) (Escherichia coli [14]): inactive; zone of inhibition at 160 µM [15]: 24 mm; zone of inhibition at 160 µM (Aspergillus flavus [17]; MTCC 1021, 48 h, read-out: IZ): 9 mm; zone of inhibition at 20 µM (Pseudomonas aeruginosa [24]): 18 mm; zone of inhibition at 20 µM (Curvularia lunata [25]): 16 mm; zone of inhibition at 80 µM (Trichoderma viride [28]): 19 mm; zone of inhibition at 80 µM (Pseudomonas aeruginosa [30]): 20 mm; zone of inhibition at 80 µM [36]: 21 mm
3 | CC1(C)S[C@@H]2[C@H](NC(=O)[C@H](N)c3ccccc3)C(=O)N2[C@H]1C(=O)O [AMPICILLIN] | – | – | 34 mm | 45 mm | – | – | 51 mm | – | – | – | 37 mm | 30 mm | – | – | – | – | – | 32 mm | 30 mm | 39 mm | zone of inhibition at 20 µM [31]: 38 mm; zone of inhibition at 40 µM (Salmonella typhimurium [8]; [38]): 44 mm; zone of inhibition at 40 µM [35]: 39 mm; zone of inhibition at 40 µM (Pseudomonas aeruginosa [9]): 34 mm; zone of inhibition at 40 µM (Staphylococcus aureus [11]; ATCC 11632, 24 h, read-out: IZ): 29 mm; zone of inhibition at 20 µM (Salmonella typhimurium [12]; [38]): 37 mm; zone of inhibition at 160 µM [15]: 46 mm; zone of inhibition at 20 µM (Staphylococcus aureus [19]; ATCC 11632, 24 h, read-out: IZ): 28 mm; zone of inhibition at 20 µM (Pseudomonas aeruginosa [24]): 31 mm; zone of inhibition at 80 µM (Staphylococcus aureus [29]): 30 mm; zone of inhibition at 80 µM (Pseudomonas aeruginosa [30]): 36 mm; zone of inhibition at 80 µM [36]: 41 mm
